Measured values from patent US20120065365A1, “Stable Radiopharmaceutical Compositions and Methods for Their Preparation” (BRACCO IMAGING S.P.A., priority 2003, published 2012).
Read-outs that look alike come from different tables or passages of the source.

Columns and labels:
[1] = Stability in Radiolysis Protecting Solution containing methionine (FIG. 4 and similar study); format: physicochemical; settings: 104 mCi, diluted 1:1 with radiolysis protecting solution (2 mg/mL DL-methionine) added after complex formation, room temperature
Method: Formulations stabilized by such cocktails maintained excellent radiochemical purity (RCP) values (>95% RCP) for as long as 5 days at room temperature. This stabilizing cocktail is added immediately after formation of the radioactive complex, so would be the second vial of a two-vial kit.

[2] = format: physicochemical; settings: 50 mCi/2 mL in Radiolysis Protecting Solution containing L-methionine, room temperature
Method: (§1) The injection volume was 20 μL.
A Radiolysis Protecting Solution was prepared to contain 10 mg/mL gentisic acid; 50 mg/mL ascorbic acid sodium salt; 2 mg/mL HSA; 2.98 mg/mL L-methionine, 0.9% (v:v) benzyl alcohol and 1 mg/mL of Na2EDTA.2H2O in 0.05 M, pH 5.3 citrate buffer. […] The mixture was incubated at 100° C. for 5 min, and then cooled to room temperature with a water bath. A 1-mL aliquot of the Radiolysis Protecting Solution was immediately added. The reaction vial was stored in an autosampler chamber and the stability was analyzed by Reversed Phase HPLC over time, using HPLC Methods 3 and 4. The results obtained for ^177Lu-B are shown in the chromatograms in FIG. 9.

[3] = format: physicochemical; settings: Radiolysis Protecting Solution containing L-selenomethionine, room temperature
Method: ^177Lu-A and ^177Lu-B were prepared at a 50 mCi level as described in EXAMPLE 4. Immediately after cooling the reaction mixtures to room temperature, 1 mL of a Radiolysis Protecting solution was added, containing 10 mg/mL gentisic acid; 50 mg/mL ascorbic acid sodium salt; 2 mg/mL HSA; 3.92 mg/mL L-selenomethionine, 0.9% (v:v) benzyl alcohol and 1 mg/mL of Na2EDTA.2H2O in 0.05 M, pH 5.3 citrate buffer. The reaction vials were stored in the autosampler chamber and the stability was analysed by RP-HPLC over time using HPLC Methods 3 [^177Lu-A] or 4 [^177Lu-B].

[4] = format: physicochemical
Method: The reaction vial was crimp-sealed and heated at 100° C. for 10 min. […] The sample was stored in an autosampler in which the temperature is ˜6° C. […] than room temperature, and analyzed by RP-HPLC for up to 120 hours.

[5] = format: physicochemical; settings: ^177Lu-A (3.6 mCi) prepared in presence of 2.5 mg/mL stabilizer
Method: To lead-shielded 4-mL vials was added 200 μL of the individual NaOAc-stabilizer solutions, 3.58 mCi ^177LuCl3 (avg) and 5.08 μg COMPOUND A (dissolved in water). The ratio of COMPOUND A to Lutetium was 3:1 for all samples. The reaction mixtures were heated to 100° C. for 5 minutes, then cooled, treated with Na2EDTA.2H2O, subdivided and stored as described in Example 9. The radiochemical purity (RCP) percentage data obtained are listed Table 12.

[6] = format: physicochemical; settings: ^177Lu-A (2.7-3.7 mCi) prepared in presence of 1 mg/mL stabilizer
Method: The injection volume was 10 μL.
Each individual stabilizer was prepared at a concentration of 1 mg/mL in sodium acetate (NaOAc) buffer (0.2 M, pH 4.8). […] The reaction mixture was heated to 100° C. for 5 minutes, and then cooled for 5 minutes in an ambient-temperature water hath. To each sample, 10 μL of 2% Na2EDTA.2H2in water was added, and then each was divided into two 100-μL aliquots. One aliquot was analyzed by HPLC (Method 5) and then stored at room temperature in a sealed lead container for 24 hours. The other aliquot was stored frozen (−10° C.) for 24 hours. Each sample was analyzed at t=24 h.

[7] = format: physicochemical; remark: listed apart in the source
Method: The reaction vial was crimp-sealed and heated at 100° C. for 5 min. […] The sample was stored in an autosampler in which the temperature is ˜6° C. […] than room temperature, and analyzed by RP-HPLC for up to 24 hours.
L-Selenomethionine: ^177Lu-B was prepared, diluted and analyzed as described above, but 5 mg of L-Se-Met was used in place of PDTC, the heating time was 10 minutes, and the quantity of radioactivity used was 52 mCi.
L-cysteine ethyl ester, HCl: ^177Lu-B was prepared, diluted and analyzed as described above, but 5 mg of L-CEE, hydrochloride salt was used in place of PDTC, the heating time was 5 minutes and the quantity of radioactivity used was 50 mCi.
L-cysteine HCl.H2O: ^177Lu-B was prepared, diluted and analyzed as described above, but 5 mg of L-Cys HCl.H2O was used in place of PDTC, the heating time was 8 minutes and the quantity of radioactivity used was 53 mCi.

[8] = Radiostability (RCP, Met═O by HPLC) of preformed ^177Lu-A with individual amino acids added (Example 1); format: physicochemical; settings: amino acid 6.6 mg/mL, room temperature
Method: as §1
Solutions of the individual amino acids L-Methionine, L-Selenomethionine, L-cysteine HCl.H2O, L-Tryptophan, L-Histidine, and Glycine were prepared at a concentration of 10 mg/mL in 10 mM Dulbecco's phosphate-buffered saline, pH 7.0 [PBS].
The final radioactive concentration of each sample was ˜20 mCi/mL.

[9] = format: physicochemical; remark: listed apart in the source
Method: as §1
Each stabilizer was prepared at a concentration of 5 mg/mL in sodium acetate (NaOAc) buffer (0.2 M, pH 4.8). To lead-shielded 4-mL vials were added 200 μL of the individual stabilizer solutions, 3.55 mCi ^177LuCl3 (avg) and 5.44 μg COMPOUND A (dissolved in water). A second set of replicates of each sample was prepared, using the individual stabilizers. To these was added 4.37 mCi ^177LuCl3 (avg) and 6.7 μg (avg) COMPOUND A (dissolved in water). The ratio of COMPOUND A to lutetium was 3:1 for all samples. The reaction mixture was heated to 100° C. for 5 minutes then cooled for 5 minutes in an ambient-temperature water bath. To each sample, 10 μL of 2% Na2EDTA.2H2O in water was added, then each was analyzed by HPLC (Method 1 for the first set of replicates; Method 2 for the second set of replicates). The second set of replicates were stored and analyzed again at t=24 h.

[10] = Labeling efficiency and stability of ^111In-B with selenomethionine 2.5 mg/mL (Example 21); format: physicochemical
Method: A solution of L-selenomethionine (20 mg/mL) was prepared by dissolving it in NaOAc buffer (0.2 M, pH 4.0). To a lead-shielded 2-mL vial was added 111 μL of NaOAc buffer (0.2 M, pH 4.0), 25 μL selenomethionine solution (0.5 mg of Se-Met), 4 μL of COMPOUND B (20 μg in 0.01 N HCl) and 1.0 mCi ^111InCl3 in 60 μL of 0.05 N HCl. A control reaction was run containing all reagents above, but substituting NaOAc buffer for the Se-Met solution. The reaction mixtures were heated at 100° C. for 15 minutes, and then cooled for 1 minute in an ambient-temperature water bath. To each sample, 200 μL of stabilizing solution (0.2% HSA, 5% ascorbic acid, 0.9% benzyl alcohol, 20 mM Se-Met in 50 mM citrate buffer, pH 5.3) and 2 μL of 1% Na2EDTA.2H2O in water were added, and then each was analyzed stored at room temperature for up to 6 hours and analyzed by HPLC as described below. HPLC conditions: Vydac C18 column, 4.6×250 mm, 5 μM, 1.5 mL/min flow rate at 30° C. Solvent A: 0.1% TFA in water; Solvent B: 0.085% TFA in acetonitrile. Gradient: 80% A/20% B isocratic for 20 min, ramp up to 40% A/60% B in 5 min, hold for 5 mm, return to 80% A/20% B in 5 min.

Compound: ^177Lu-B: the ^177Lu complex of DOTA-Gly-Abz4-Gln-Trp-Ala-Val-Gly-His-Leu-Met-NH2
- RCP for 5 days [1]: > 99%
- % RCP 0-d ([2]; 0 d): 99.8%
- % RCP 1-d ([2]; 1 d): 99.3%
- % RCP 2-d ([2]; 2 d): 99.6%
- % RCP 5-d ([2]; 5 d): 99.8%
- % RCP 0-d ([3]; 50 mCi level, 0 d): 95.8%
- % RCP 1-d ([3]; 1 d): 95.7%
- % RCP 2-d ([3]; 2 d): 96.2%
- % RCP 3-d ([3]; 3 d): 96.7%
- % RCP 5-d ([3]; 5 d): 98.4%
- RCP (%) ([4]; 110.5 mCi, prepared with L-selenomethionine 2.94 mg/mL, then 4 mL saline with sodium ascorbate 50 mg/mL and benzyl alcohol, 0 hours post-reconstitution): 99.5%
- RCP (%) ([4]; L-selenomethionine 2.94 mg/mL plus ascorbate/benzyl alcohol saline, 120 (5 days) hours post-reconstitution): 99.8%
- RCP (%) ([4]; L-selenomethionine 2.94 mg/mL plus ascorbate/benzyl alcohol saline, 2 hours post-reconstitution): 99.6%
- RCP (%) ([4]; L-selenomethionine 2.94 mg/mL plus ascorbate/benzyl alcohol saline, 3 hours post-reconstitution): 99.5%
- RCP (%) ([4]; L-selenomethionine 2.94 mg/mL plus ascorbate/benzyl alcohol saline, 6 hours post-reconstitution): 99.0%
- RCP (%) ([4]; L-selenomethionine 2.94 mg/mL plus ascorbate/benzyl alcohol saline, 9 hours post-reconstitution): 99.4%
- RCP (%) ([4]; L-selenomethionine 2.94 mg/mL plus ascorbate/benzyl alcohol saline, 12 hours post-reconstitution): 99.2%
- RCP (%) ([4]; L-selenomethionine 2.94 mg/mL plus ascorbate/benzyl alcohol saline, 24 hours post-reconstitution): 99.4%

Compound: C[Se]CC[C@H](N)C(=O)O [L-Selenomethionine]
- RCP % t = 24 h (frozen) ([5]; 24 h frozen): 94.7%
- RCP % t = 24 h (room temp) ([5]; 24 h room temp): 95.6%
- RCP % t = 0 h ([5]; t = 0 h): 95.7%
- RCP % t = 24 h (frozen) ([6]; 24 h frozen (−10° C.)): 99.2%
- RCP % t = 24 h (room temp) ([6]; 24 h room temp): 100%
- RCP % t = 0 h ([6]; t = 0 h): 100%
- (% RCP) 3-h ([7]; ^177Lu-B (44-53 mCi) formulated with 5 mg stabilizing compound, 3 h): 94.6%
- (% RCP) 6-h ([7]; ^177Lu-B (44-53 mCi) formulated with 5 mg stabilizing compound, 6 h): 94.4%
- (% RCP) 9-h ([7]; ^177Lu-B (44-53 mCi) formulated with 5 mg stabilizing compound, 9 h): 93.3%
- (% RCP) 12-h ([7]; ^177Lu-B (44-53 mCi) formulated with 5 mg stabilizing compound, 12 h): 92.6%
- (% RCP) 24-h ([7]; ^177Lu-B (44-53 mCi) formulated with 5 mg stabilizing compound, 24 h): 90.6%
- (% RCP) 0-h ([7]; ^177Lu-B (44-53 mCi) formulated with 5 mg stabilizing compound, diluted to ~2 mL, ~6° C. above room temperature, 0 h): 95.0%
- RCP Drop over 24 hr ([7]; ^177Lu-B formulated with 5 mg stabilizing compound, 0 to 24 h): 4.4%
- 0-1 h RCP (%) ([8]; ^177Lu-A ~20 mCi/mL (3.5 mCi total), 0-1 h): 100%
- 24-h RCP (%) ([8]; ^177Lu-A ~20 mCi/mL, 24 h): 99.1%
- 48-h RCP (%) ([8]; ^177Lu-A ~20 mCi/mL, 48 h): 99.9%
- Replicate 1 RCP % t = 0 h ([9]; ^177Lu-A (3.55 mCi avg) prepared in presence of 5 mg/mL stabilizer, HPLC Method 1, t = 0 h): 57.5%
- Replicate 2 RCP % t = 0 h ([9]; ^177Lu-A (4.37 mCi avg) prepared in presence of 5 mg/mL stabilizer, HPLC Method 2, t = 0 h): 60.6%
- Replicate 2 RCP % t = 24 h ([9]; ^177Lu-A (4.37 mCi avg) prepared in presence of 5 mg/mL stabilizer, HPLC Method 2, t = 24 h): 57.1%
- RCP, % t = 0 ([10]; ^111In-B (1.0 mCi) prepared in presence of selenomethionine 2.5 mg/mL, stabilizing solution added after, t = 0): 98.3%
- RCP, % t = 6 h ([10]; ^111In-B prepared in presence of selenomethionine 2.5 mg/mL, room temperature, 6 h): 96.6%
